Assay results as given in patent publication US20240409647A1, “BISPECIFIC BINDING PROTEINS AGAINST ALARMINS AND USES THEREOF” (SINOMAB BIOSCIENCE LIMITED, priority 2022, published 2024).

Assays:
[1] = target: T1, hIL17RC (Homo sapiens, UniProt Q8NAC3); assay: ELISA, SM17 specificity against IL-17 receptor subunits (IL17RC); format: binding; conditions: 0.4 to 0.00064 μg/mL
T1 construct: purchased R&D systems
T1 sequence (Q8NAC3 21-791): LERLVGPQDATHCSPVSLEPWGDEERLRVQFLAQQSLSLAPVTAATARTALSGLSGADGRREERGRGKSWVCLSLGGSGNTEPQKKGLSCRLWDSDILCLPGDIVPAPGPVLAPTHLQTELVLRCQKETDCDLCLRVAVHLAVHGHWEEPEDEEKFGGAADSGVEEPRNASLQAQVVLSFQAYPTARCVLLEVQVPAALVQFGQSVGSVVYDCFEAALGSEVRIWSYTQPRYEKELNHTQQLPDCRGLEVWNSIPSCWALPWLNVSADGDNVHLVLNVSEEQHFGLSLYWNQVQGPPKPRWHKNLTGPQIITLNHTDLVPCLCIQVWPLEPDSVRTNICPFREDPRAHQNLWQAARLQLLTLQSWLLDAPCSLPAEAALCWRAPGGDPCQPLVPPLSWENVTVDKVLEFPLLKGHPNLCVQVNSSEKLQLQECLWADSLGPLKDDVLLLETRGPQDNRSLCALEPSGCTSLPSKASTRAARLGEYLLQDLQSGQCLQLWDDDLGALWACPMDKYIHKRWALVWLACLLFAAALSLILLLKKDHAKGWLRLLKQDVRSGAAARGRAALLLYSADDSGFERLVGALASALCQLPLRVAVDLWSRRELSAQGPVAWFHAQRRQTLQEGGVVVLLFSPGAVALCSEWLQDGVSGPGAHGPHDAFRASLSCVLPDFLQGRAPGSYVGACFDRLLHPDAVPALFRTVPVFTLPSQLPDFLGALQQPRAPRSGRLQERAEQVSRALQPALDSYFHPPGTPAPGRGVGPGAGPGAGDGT
Protocol: A standard ELISA method was used to determine the specificity of SM17 against other human IL17 receptor subunits. Similarly, serially diluted SM17 at different concentrations (final concentrations at 0.4, 0.08, 0.016, 0.0032 and 0.00064 μg/m, respectively) was added to the wells of ELISA plates coated either with human IL-17 receptor subunits A, C, D and E (IL17RA, IL17RC, IL17RD, and IL17RE) (R&D systems).

[2] = system: Human renal carcinoma cell line TK-10; assay: IL-8 release from IL-25/TNFa-treated TK-10 cells; format: cell-based; conditions: 1 mg/mL; 100 ng/mL IL-25, 10 ng/mL TNFa; 24 or 48 hours
Protocol: Human renal carcinoma cell line TK-10 (NCI-60, NIH, Bethesda, MD) treated with human IL-25 (PeproTech) and TNFa (R&D systems) can lead to the release of IL-8, also known as neutrophil chemotactic factor, an important mediator of the immune reaction in the innate immune system response. Accordingly, the inhibitory effects of SM17 and its murine counterpart (D9.2) on IL-8 release from IL-25/TNFa-treated TK-10 cells was evaluated. Briefly, SM17 (human IgG4 isotype, SinoMab BioScience Limited, Hong Kong, China), SM17-IgG1 (human IgG1 isotype, SinoMab BioScience Limited) and its murine counterpart (D9.2, SinoMab BioScience Limited) at a concentration of 1 mg/mL were added to 2×10^4 of TK-10 cells in the presence of 100 ng/mL of IL-25 and 10 ng/mL of TNFa. Non-specific human IgG1 (SM03, anti-CD22 chimeric antibody, SinoMab BioScience Limited) was used as the control antibody. Treated cells were cultured in OptiMEM (Thermo Fisher Scientific) for 24 or 48 hours at 37° C., and the level of IL-8 release in the culture supernatant was measured by standard ELISA assay using a commercial kit (R&D systems).

[3] = system: Human PBMCs; assay: IL-5 and IL-13 release from human PBMC incubated with IL-2 and three alarmins; format: cell-based; conditions: SM17 5 μg/ml; IL-2 and three alarmins (10 ng/ml), three days; vs IgG4 isotype control
Protocol: (§1) Human PBMCs (4×10^5 per group, Ixcells) were incubated with IL-2 (10 unit/mL, PeproTech) and various alarmin/alarmin combinations to mimic the pro-inflammatory cytokines release during allergic diseases. For IL-5 and IL-13 releases, PBMCs were incubated with IL-2 and three alarmins (all 10 ng/ml) for three days. For CCL17 release, PBMC was incubated with TSLP (10 ng/ml) for 1 day. For CCL8 and IFNγ releases, PBMCs were incubated with IL-12 (10 ng/ml, Sino Biological) and IL-33 (10 ng/ml) for 1 day. Cells were pretreated with SM17 (5 μg/ml) or IgG4 isotype control (5 μg/ml) for an hour before the addition of cytokines.
(§2) Supernatants were collected and the cytokine concentration were measured by ELISA kits (R&D systems). These established assays were used to test the potency of and SM17 and bsBps. […] Results were expressed in absolute amount in pg/ml.
(§3) SM17, three different SM17-anti-IL33 bsBps and three different SM17-anti-TSLP bsBps (all at 5 μg/ml) were added to human PBMC cultures under conditions that shall induce the release of IFNγ, CCL8, CCL17 and IL-5 as described in Example 11 above. The levels of different cytokines and chemotactic factors in supernatant obtained in induced PBMC were evaluated using standard ELISA methods.

[4] = system: Human PBMCs; assay: CCL17 release from human PBMC incubated with TSLP; format: cell-based; design: key to Intensity of specific cytokine inhibition, CCL-17: −: no inhibition; +: weak; ++: moderate; +++: strong inhibition
Protocol: as §1, §2, §3

[5] = system: Normal human DCs; assay: Dendritic cell potency assay, TSLP-induced CCL17 production; format: cell-based; design: key: −: no inhibition; +: weak; ++: moderate; +++: strong inhibition; conditions: 5 μg/mL; TSLP 10 ng/mL, 5 days
Excerpt: TSLP from inflamed epithelium promotes maturation of dendritic cells (DCs) to prime Th2 responses via CCL17, which induces chemotaxis of CD4+ T cells to mediate inflammation (Kitajima and Ziegler. 2013. “Cutting Edge: Identification Of The Thymic Stromal Lymphopoietin-Responsive Dendritic Cell Subset Critical For Initiation Of Type 2 Contact Hypersensitivity”. J Immunol 191: 4903-4907; Bleck et al. 2015. “Co-Expression Of Type 2 Immune Targets In Sputum-Derived Epithelial And Dendritic Cells From Asthmatic Subjects”. J Allergy Clin Immunol 136: 619-627.e5). Normal human DCs were obtained from Lonza (Bend, OR). The DCs were cultured in LGM-3 medium (Lonza). TSLP (10 ng/mL) is added into the DC cultures for 5 days in the presence of 5 μg/mL of SM17, IgG4 isotype control (Sino Biological), SM17-TSLPR bsBp (SM17 fused with TSLP receptor extracellular domain) or SM17-anti-TSLP bsBp 2 #. The supernatants are harvested and the levels of CCL17 measured by ELISA following the manufacturer's specification (R&D systems).

Substance: SM17: humanized anti-IL17RB monoclonal antibody, human IgG4 isotype; HC SEQ ID NO: 32, LC SEQ ID NO: 33
- binding of SM17 to IL17RC (in words) [1]: No obvious bindings
- release of IL-8 by IL-25/TNFa-induced TK-10 cells (in words) [2]: efficiently suppress the release of IL-8
- secretion of IL-5 (in words) [3]: effectively suppress
- secretion of IL-13 (in words) [3]: effectively suppress
- Intensity of specific cytokine inhibition, CCL-17 ([4]; 5 μg/ml, human PBMC): −
- CCL17 release (in words) ([4]; SM17 5 μg/ml, TSLP 10 ng/ml, 1 day, vs IgG4 isotype control): no inhibitory effects
- Potency, inhibition of CCL17 release on dendritic cells [5]: −
